US20120093946A1, “USE OF CARBON DIOXIDE SUPPLYING MEANS FOR MUSCLE STRENGTHENING AND METHOD OF INCREASING CATTLE MEAT THEREBY” (priority 2007, published 2012)

Tests used:
[1] = tested on: muscle strength of the quadriceps femoris and the hamstrings; test: Promotion of muscle strengthening by stretching exercise on isometric torque of legs, transdermal carbon dioxide absorption on treated leg; type: in vivo, human
From the text: Eight subjects including two subjects who played sports three times or more a week (hereinafter, referred to as “athlete”) and six subjects who played sports two times or less a week (hereinafter, referred to as “non-athlete”) participated in the experiment. Each subject did warming-up by pedaling a gym bicycle for ten minutes. Next, each subject did a stretching exercise on isometric torque of the quadriceps femoris 300 times or more by using training machine MyoretRZ-450 (Kawasaki Heavy Industries, Ltd.). Thus, an exercise load was applied to the quadriceps femoris. Then, the muscle strength of the quadriceps femoris and the muscle strength of the hamstrings to which an exercise load was not applied were measured by using MyoretRZ-450.
After the training was completed, the carbon dioxide absorption aid 4 described in Example 5 in Patent Document 7 (Japanese Patent Unexamined Publication No. 2004-517345) was applied to one determined leg (hereinafter, referred to as a “treated leg”). The treated leg was covered with an 80 cm-long polypropylene bag type sealing enclosure member equipped with a check valve. Then, the member was filled with carbon dioxide from a carbon dioxide gas cylinder and stood still for ten minutes. The carbon dioxide concentration was set to 80% (800,000 ppm). No treatment was given to the other leg (hereinafter, referred to as a “non-treated leg”). The training was carried out only once, this time.
Each subject allowed the treated leg to absorb carbon dioxide for ten minutes once a day as mentioned above by using the carbon dioxide supplying means for muscle strengthening of the present invention (by using a carbon dioxide external administration device as the carbon dioxide supplying means). Thereafter, the muscle strength of the quadriceps femoris and the muscle strength of the hamstrings were measured by using MyoretRZ-450.
On day 4 and later after the experiment was started, neither absorption of carbon dioxide nor stretching exercise on isometric torque of the quadriceps femoris was carried out. On day 7 after the experiment was started, the muscle strengths of the quadriceps femoris and the hamstrings were measured by using MyoretRZ-450.

[2] = tested on: muscle strengths of the quadriceps femoris and the hamstrings; test: Promotion of muscle strengthening with no exercise load applied, three months; type: in vivo, human; details: month 3, no exercise load, 80% CO2 ten minutes at least once a week
From the text: Thirteen subjects (all males, aged from 27 to 43) participated in the experiment. In each subjects, the absorption aid 4 of carbon dioxide described in Example 5 in Patent Document 7 (Japanese Patent Unexamined Publication No. 2004-517345) was given to one determined leg (hereinafter, referred to as a “treated leg”). The treated leg was covered with an 80 cm-long polypropylene bag type sealing enclosure member equipped with a check valve. Then, carbon dioxide was filled in the member from a carbon dioxide gas cylinder and stood still for ten minutes. The carbon dioxide concentration was set to 80% (800,000 ppm). The treatment was carried out at least once a week for three months. No treatment was given to the other leg (hereinafter, referred to as a “non-treated leg”). Before and three months after the experiment was started, the muscle strengths of the treated leg and the non-treated leg were measured (the muscle strengths of the quadriceps femoris and the hamstrings were measured by using MyoretRZ-450).

[3] = tested on: rat lower thigh muscle; test: Increase in amount of rat muscle with no exercise load applied, three months; type: in vivo, Wister rats
From the text: Nine male Wister rats (5-week old at the time when the experiment was started) were used.
In the CO2 group, the hair was removed from the right and left lower thighs of six rats under anesthesia. Then, the absorption aid 4 of carbon dioxide described in Example 5 in Patent Document 7 (Japanese Patent Unexamined Publication
No. 2004-517345) was applied to only the right lower thigh (hereinafter, referred to as a “treated limb”). Next, the rat lower body was covered with a polyethylene bag type sealing enclosure member provided with a hole through which the left hind limb comes out so that only the right hind limb absorbs carbon dioxide. Then, carbon dioxide was filled in the sealing enclosure member by using a carbon dioxide gas cylinder so as to inflate the sealing enclosure member. In order to always secure a sufficient amount of carbon dioxide in the sealing enclosure member, carbon dioxide was added at any time, so that the sealing enclosure member was filled with carbon dioxide for ten minutes. The carbon dioxide concentration inside the sealing enclosure member was set to 100%. […]
Three months later, the rat body weights were measured and the muscle was collected from the right and left lower thighs. The muscle wet weight of the collected muscle was measured, followed by detecting growth a acceleration indicating proteins of muscle fibers, MyoD and Myogenin (see Atsuko HARA et al., “Expression of myosin heavy chain isoforms, myogenin and MyoD in the course of regeneration of skeletal muscle,” Journal of Health Sciences of Hiroshima University, Vol. 2 (1): 12-18, 2002), and IGF-IR [see Junichi SUZUKI et al., “Effect of endurance training with L-arginine supplementation on expression of IGF-1 receptor in rat skeletal muscles” Research for Winter Sports, (the Proceedings of Research and Education Center for Winter Sports, Hokkaido University of Education), Vol. 8 (1) 1-7, 2005], by Western blotting. The resultant bands were analyzed on the analysis software (NIH-Image) so as to quantify each growth acceleration indicating protein. […]

[4] = tested on: grip strength; test: Promotion of kaatsu training effect, grip strength; type: in vivo, human
Experimental: Two subjects participated in the experiment. The experiment was carried out according to Abe T. et al. (2006) Electromyographic responses of arm and chest muscle during bench press exercise with and without KAATSU. Int. J. Kaatsu Training Res. 2:15-18. The grip strengths of both hands of each subject were measured before the experiment was started. Next, the absorption aid 4 of carbon dioxide described in Example 5 in Patent Document 7 (Japanese Patent Unexamined Publication No. 2004-517345) was applied to the entire left arm of each subject, and the left arm was covered with an 80 cm-long polypropylene bag type sealing enclosure member equipped with a check valve. A cuff of blood pressure manometer was worn on the upper arm with the sealing enclosure member applied. Firstly, the upper arm was pressurized with a cuff pressure of 50 mmHg for 30 seconds. Next, the pressure was released once for 10 seconds, and then the upper arm was pressurized while gradually increasing the cuff pressure to 70 mmHg. When the cuff pressure reached 70 mmHg, the pressure was fixed. Then, carbon dioxide was filled in the sealing enclosure member from a carbon dioxide gas cylinder so as to inflate the sealing enclosure member. […]
Three days after the experiment, the grip strength of both hands of each subject was measured.

[5] = day 7, non-athletes, pre-ex defined as 100%
[6] = 100% CO2 ten minutes twice a week

In the case of `O=C=O` [carbon dioxide], the “blood pressure and heart rate of the subjects during the absorption of carbon dioxide” value ([1]; after exercise load, 80% CO2, ten minutes, treated leg) is reported as “did not change”, the “muscle strengthening of the quadriceps femoris in the treated leg” value ([1]; day 7, all subjects, pre-ex defined as 100%, CO2 absorption stopped from day 4) is reported as 20% and the “muscle strengthening of the hamstrings (no exercise load) in the treated leg” value ([1]; day 7, all subjects, pre-ex defined as 100%, significant at P=5%) is reported as “about 15%”. For the same molecule, the “muscle strengthening of the hamstrings (no exercise load) in the treated leg, non-athletes” value [1, 5] was “about 20%”, the “muscle strengthening of the quadriceps femoris in the treated leg, non-athletes” value [1, 5] was “about 30%” and the “muscle strengthening of the quadriceps femoris, treated leg compared with non-treated leg” value ([1]; days 2 to 4 of the experiment, CO2 ten minutes once a day) was “promoted”. For the same molecule, the “recovery of the muscle strength of the quadriceps femoris, treated leg versus non-treated leg” value ([1]; post-CO2, day of exercise load, 80% CO2, ten minutes) was “faster”, the “muscle strengthening of the quadriceps femoris in the treated leg as compared with the non-treated leg” value ([2]; P=1%) was “about 15%” and the “muscle strengthening of the hamstrings in the treated leg as compared with the non-treated leg” value ([2]; P=5%) was “about 15%”. The “muscle wet weight per body weight, CO2 group as compared with CONTROL group” value [3, 6] was “increase”, the “muscle wet weight, treated leg as compared with non-treated leg in the CO2 group” value [3, 6] was “remarkable increase” and the “amount of growth acceleration indicating protein (MyoD, Myogenin, IGF-IR) extracted from the muscle, CO2 group versus CONTROL group” value ([3]; Western blotting) was “increased”. For the same molecule, the “muscle strengthening rate (grip strength) compared with only pressurizing” value ([4]; day 3 after kaatsu training, treated arm versus non-treated arm) was “two-times” and the “muscle pain and fatigue accompanying kaatsu training” value ([4]; left hand with carbon dioxide absorption versus only pressurizing and exercise) was “reduced”.
